Assay [1] relates to cultured HFSCs. Nature of the assay: HFSC quiescence / bulge identity in culture (Nfatc1, Cxcl14 reporter). In kind it is cell-based, mouse. An excerpt: In vivo, HFSCs can be divided into two populations: those in a more quiescent state found in the bulge and ones primed for activation, located in the ‘hair germ’ (HG) just below the bulge. As BMP6 is produced by the inner bulge and responsible for maintaining HFSCs in their quiescent state (FIG. 2 Panel A), we continued to utilize a described culture system by assessing how these factors impact HFSC activation and fate commitment.
BMPs triggered cell cycle exit (FIG. 9 Panel A).
(§1) ERKi was also excluded because of its known ability to regulate the initiation of hair growth. Both atRA (10 nM-1 μM) and PKCi (0.1-10 μM) were titrated to determine the optimal concentration to reduce lineage plasticity and promote physiological HFSC behavior. […] In contrast, BMP6-mediated Nfatc1 mRNA upregulation (quiescence marker) was maximal at 10 nM. Therefore, the amount of atRA should be modified in HFSC cultures to support the desired cell fate in combination with these and possibly other growth factors.

Another assay concerns Klf5-EGFP. Nature of the assay: Klf5-EGFP lineage plasticity reporter in 3D cultured HFSCs (flow cytometry). Format: cell-based, mouse. Particulars: for Klf5-EGFP levels: media modification.
A further assay relates to human keratinocytes. Nature of the assay: Human keratinocyte culture under the described conditions, 7 days. Format: cell-based. The settings on record: atRA plus PKCi added to B-27 media. An excerpt:
This example relates to FIG. 21. With respect to FIG. 21, to assess the translatability of the described methodology enabling the faithful recapitulation of hair follicle stem cell (HFSC) identity in culture to humans, we introduced the described conditions developed in the mouse to human keratinocytes.

The subject of assay [2] is cultured HFSCs. Nature of the assay: Marker expression in cultured HFSCs (immunofluorescence, immunoblot, qPCR). Format: cell-based, mouse. An excerpt:
We first explored these two hits against the backdrop of our more physiological (serum-free) conditions, where SOX9 and KLF5 had already partitioned their expression peripherally and internally within colonies, respectively (FIG. 1 Panel C).
Immunoblot, qPCR and additional immunofluorescence analyses strengthened the evidence that PKCi and atRA resolve lineage plasticity (FIG. 1 Panel D, FIG. S2, Panels C to E).

The test system of assay [3] is HFSCs. Nature of the assay: HFSC growth, survival and colony formation in 3D Matrigel culture. Format: cell-based, mouse. Particulars: for concentration at which maximal rates of cell proliferation were reached: 3D Matrigel culture, standard HFSC media.
Assay [4] deals with cultured HFSCs. Nature of the assay: Directed differentiation of cultured HFSCs to HS and IRS lineages (Cux1 reporters, GATA3, HOXC13). Format: cell-based, mouse. The settings on record: for hair shaft (HS) differentiation (HOXC13, HS reporter): WNT-BMP co-activated HFSCs.
The subject of assay [5] is HFSCs. Nature of the assay: Wound repair with lineage-traced HFSCs, topical treatment. Format: in vivo, mice. The settings on record: topical. An excerpt: The recruitment of HFSCs to epidermal repair is a multistep process, involving first the entry of HFSCs into a lineage plasticity state, second the fate switch to an epidermal fate and then later, the rebalancing of stem cell numbers across tissue compartments. Given the need for atRA to drive hair lineage determination, we analyzed whether elevating atRA after injury might diminish the ability of HFSCs to enter a state of lineage plasticity after wounding. To test this, we administered topical atRA immediately after wounding to telogen-phase, lineage marked HFSCs. While entry into the hair cycle proceeded normally after injury, topical atRA led to a stem cell imbalance (FIG. 5 Panel D).
To assess the consequences of promoting lineage plasticity following injury, we placed mice on a vitamin A-deficient diet that depleted the skin of retinol without affecting body mass (FIG. 15 Panel E). In this case, following tissue injury, mobilized HFSCs entered a prolonged stated of dual lineage potential well into the later stages of repair (FIG. 5 Panel D). […] By day 30, vitamin A deficiency also elevated the fraction of stem cells that contributed to the repaired epidermis and diminished the number remaining in the bulge.

For assay [6], the system named is cultured HFSCs. Description: Rspo/WNT-mediated HFSC activation in culture (TCF/LEF, Lgr5, EdU). In kind it is cell-based, mouse.
Excerpt: In vitro, none of the four WNT-regulating TCF/LEF transcription factors were expressed under standard serum conditions or in serum-free conditions, even with PKCi. […] These HFSC-associated TFs were also stimulated by BMP6, consistent with a raised threshold for activating WNT during quiescence (FIG. 10, Panels A and B). […] Rspo-mediated HFSC proliferation was sensitive to atRA with the greatest cooperative effect seen at 10-fold higher the atRA concentration that had been optimal for quiescence-related features of stemness (FIG. 2 Panel E, FIG. 10 Panel D).
as §1

In assay [7] the test system is HFSCs. Nature of the assay: Transplantation of precultured HFSCs with dermal fibroblasts onto mouse back skins. In kind it is in vivo. The settings on record: HFSCs precultured in serum-free media primed with either atRA, BMP6 or Rspo. An excerpt: By overcoming the hurdles to lineage progression in vitro, we challenged the in vivo regenerative potential of the described lineage-specified cell populations. YFP-labeled progenitors from each group were combined with allogenic dermal fibroblasts and transplanted onto mouse back skins.

“Also recorded” adds a separate entry of the source. Like-named read-outs stand apart in the source and are kept apart here.

For the molecule `Cn1c2ccccc2c2c3c(c4c5ccccc5n(CCC#N)c4c21)CNC3=O` [PKCi, Go-6976], the Cxcl14 activity entry in the assay with cultured HFSCs [1] is given as “little or no effect on Cxcl14 activity”. For the same molecule, the “reduction of Klf5-EGFP levels” value in the assay with Klf5-EGFP (atRA and PKCi tested in combination) is listed as “most effective at reducing Klf5-EGFP levels”. In the assay on Klf5-EGFP (screen of small molecule library, serum-free 3D culture), the “effect on lineage plasticity (Klf5-EGFP levels)” value is “effective at reducing lineage plasticity without affecting proliferation; also recorded: particularly effective agents impacting lineage plasticity”. For the same molecule, the “minimum concentration required to achieve maximal effect on lineage plasticity and HFSC fate” value in the assay with Klf5-EGFP (titrated 0.1-10 μM) was 1 µM. Besides, in the assay with human keratinocytes, the KLF5 expression entry was “further suppressed KLF5 expression in both basal and suprabasal layers”; the SOX9 levels result is given as “upregulated SOX9 levels”. Further, in the assay on human keratinocytes (listed as G66976), the “keratin profile (KRT10, KRT6, KRT15)” value is “reductions in KRT10 and KRT6; also recorded: upregulation of KRT15”. Besides, in the assay on cultured HFSCs [2], the “KRT6 and Ets2 expression” value is reported as “suppressed”. Also, the “resolution of lineage plasticity and HFSC behavior” value in the assay with cultured HFSCs [2] (combination of atRA and PKCi, 3D culture) was “optimally resolved lineage plasticity and favored HFSC behavior”. In addition, in the assay with cultured HFSCs [2] (serum-free conditions), the KLF5 expression result was “suppressed KLF5 expression”.
Consider `CC(C)CCC[C@@H](C)[C@H]1CC[C@H]2[C@@H]3CC=C4C[C@@H](O)CC[C@]4(C)[C@H]3CC[C@]12C` [Cholesterol], for which the HFSC colony growth result in the assay on HFSCs [3] (serum-free media) is on record as “increase colony growth without compromising reductions in lineage plasticity”.
On to `N[C@@H](CCC(=O)N[C@@H](CS)C(=O)NCC(=O)O)C(=O)O` [glutathione], for which the Klf5-EGFP levels result with Klf5-EGFP was “greatest impact when removed”.
For `C[C@]12CCC(=O)C=C1CC[C@@H]1[C@@H]2[C@@H](O)C[C@@]2(C)[C@H]1CC[C@]2(O)C(=O)CO` [Hydrocortisone, hydrocortisone], in the assay with HFSCs [3] (media component testing), the “effect on cell survival, colony formation or proliferation” value (“effect on cell survival” below) is reported as “not necessary for colony formation or cell proliferation”.
For `[Ca+2].[Cl-].[Cl-]` [CaCl2, Calcium Chloride], the “effect on cell survival” value in the assay with HFSCs [3] is “Less CaCl2 reduced cell proliferation while higher amounts promoted epidermal differentiation”.
Take `C[C@@H](N)[C@H]1CC[C@H](C(=O)Nc2ccncc2)CC1` [Y-27632]: the “effect on cell survival” value with HFSCs [3] (media component testing) was “increase cell survival and CFE”.
For EGF: epidermal growth factor, mitogen, the “concentration at which maximal rates of cell proliferation were reached” value in the assay on HFSCs [3] is 25 ng/mL.
For the molecule `Cc1ccc(C2=CCC(C)(C)c3ccc(C#Cc4ccc(C(=O)O)cc4)cc32)cc1` [AGN193109], the “hair shaft (HS) differentiation (HOXC13, HS reporter)” value is “uniquely promoted” with cultured HFSCs [4]; “primarily increased HOXC13 expression and enhancer epicenter reporter activity for the HS lineage” with cultured HFSCs [4] (listed as RARi). For the same molecule, in the assay on HFSCs [5], the “HF downgrowth and epidermal flux following wounding” value is “reducing HF downgrowth and promoting epidermal upward flux”.

B1: BMP6: bone morphogenetic protein; promotes HFSC quiescence (protein, UniProt P22004 375-513, looked up)
Bone morphogenetic protein 6: SASSRRRQQSRNRSTQSQDVARVSSASDYNSSELKTACRKHELYVSFQDLGWQDWIIAPKGYAANYCDGECSFPLNAHMNATNHAIVQTLVHLMNPEYVPKPCCAPTKLNAISVLYFDDNSNVILKKYRNMVVRACGCH
For B1, the cell state result in the assay with cultured HFSCs [1] (BMP6 with low concentration of atRA (10 nM)) is “resulted in cell cycle exit and maintained a state resembling quiescence”. Moreover, in the assay on cultured HFSCs [1] (compared among BMPs), the “cell cycle exit / quiescence (Nfatc1 expression, Cxcl14 promoter reporter)” value is on record as “most potent effect”. The “Tcf7l1 (TCF3) and Tcf7l2 (TCF4) expression” value in the assay on cultured HFSCs [6] is given as “stimulated”. The “hair production upon engraftment” value in the assay with HFSCs [7] was “efficiently produced hair”.

B2: BMP4: bone morphogenetic protein (protein, UniProt P12644 293-408, looked up)
Bone morphogenetic protein 4: SPKHHSQRARKKNKNCRRHSLYVDFSDVGWNDWIVAPPGYQAFYCHGDCPFPLADHLNSTNHAIVQTLVNSVNSSIPKACCVPTELSAISMLYLDEYDKVVLKNYQEMVVEGCGCR
In the case of B2, in the assay with cultured HFSCs [4] (R-spondins, BMP2 and BMP4 together), the lineages formed entry was “directed HFSCs to form the hair shaft and inner root sheath lineages”. Moreover, the “Cux1 (IRS) and Cux1 (HS) reporter activity” value in the assay with cultured HFSCs [4] (alongside Rspo) is “most effective in upregulating reporter activity”.

B3: FGF10: fibroblast growth factor 10, native HFSC niche mitogen (protein, UniProt O15520 38-208, looked up)
Fibroblast growth factor 10: QALGQDMVSPEATNSSSSSFSSPSSAGRHVRSYNHLQGDVRWRKLFSFTKYFLKIEKNGKVSGTKKENCPYSILEITSVEIGVVAVKAINSNYYLAMNKKGKLYGSKEFNNDCKLKERIEENGYNTYASFNWQHNGRQMYVALNGKGAPRRGQKTRRKNTSAHFLPMVVHS
For B3, the Klf5-EGFP levels entry with Klf5-EGFP is reported as “consistently lower”. Also, in the assay with HFSCs [3], the “concentration at which maximal rates of cell proliferation were reached” value was 10 ng/mL.

The values are drawn from patent US20250110116A1, “COMPOSITIONS AND METHODS FOR PRODUCING HAIR FOLLICLE STEM CELLS” (The Rockefeller University, priority 2023, published 2025).
